Where only a bound is given, the exact number is not on record here.

The assay relates to Huntingtin protein (HTT). Kind of assay: Endogenous Huntingtin Protein Assay (MSD electrochemiluminescence). Type of assay: cell-based. The conditions noted are these: Table 1, Endogenous Huntingtin Protein Assay; read-out: IC50. As to the method: Compounds of Formula (I) were tested using the Meso Scale Discovery (MSD) Assay provided in International Application No. PCT/US2016/066042, filed on Dec. 11, 2016 and claiming priority to United States Provisional Application U.S. 62/265,652 filed on Dec. 10, 2015, the entire contents of which are incorporated herein by reference.
The Endogenous Huntingtin Protein assay used in Example 1 was developed using the ELISA-based MSD electrochemiluminescence assay platform.
Meso Scale Discovery (MSD) 96-well or 384-well plates were coated overnight at 4° C. with MW1 (expanded polyglutamine) or MAB2166 monoclonal antibody (for capture) at a concentration of 1 μg/mL in PBS (30 μL per well). Plates were then washed three times with 300 μL wash buffer (0.05% Tween-20 in PBS) and blocked (100 μL blocking buffer; 5% BSA in PBS) for 4-5 hours at room temperature with rotational shaking and then washed three times with wash buffer.
Samples (25 μL) were transferred to the antibody-coated MSD plate and incubated overnight at 4° C. After removal of the lysates, the plate was washed three times with wash buffer, and 25 μL of #5656S (Cell signaling; rabbit monoclonal) secondary antibody (diluted to 0.25 μg/mL in 0.05% Tween-20 in blocking buffer) was added to each well and incubated with shaking for 1 Hour at room temperature. Following incubation with the secondary antibody, the wells were rinsed with wash buffer after which 25 μL of goat anti-rabbit SULFO TAG secondary detection antibody (required aspect of the MSD system) (diluted to 0.25 μg/mL in 0.05% Tween-20 in blocking buffer) was added to each well and incubated with shaking for 1 hour at room temperature. After rinsing three times with wash buffer, 150 μL of read buffer T with surfactant (MSD) were added to each empty well, and the plate was imaged on a SI 6000 imager (MSD) according to manufacturers' instructions provided for 96- or 384-well plates.
Regarding `CC1(C)C[C@H](n2ccc3cc(-c4ccc(-n5ccnn5)cc4O)nnc32)[C@H](F)CN1` [Cpd 22, 2-{7-[(4S,5R)-5-fluoro-2,2-dimethylpiperidin-4-yl]-7H-pyrrolo[2,3-c]pyridazin-3-yl}-5-(1H-1,2,3-triazol-1-yl)phenol], the 50% inhibitory concentration (IC50) is under 100 nM.

For “5-(1H-1,2,3-triazol-1-yl)-2-{7-[(4RS)-1,2,2-trimethylpiperidin-4-yl]-7H-pyrrolo[2,3-c]pyridazin-3-yl}phenol [Cpd 6]”, the IC50 was 500 to 1000 nM.

For the compound `Oc1cc(-n2ccnn2)ccc1-c1cc2ccn([C@H]3CCNC4(CC4)C3)c2nn1` [Cpd 13, 2-{7-[(7S)-4-azaspiro[2.5]octan-7-yl]-7H-pyrrolo[2,3-c]pyridazin-3-yl}-5-(1H-1,2,3-triazol-1-yl)phenol], the half-inhibitory concentration (IC50) was under 100 nM.

In the case of `Cc1cnnn1-c1ccc(-c2cc3ccn([C@H]4CCNC5(CC5)C4)c3nn2)c(O)c1` [Cpd 18, 2-{7-[(7S)-4-azaspiro[2.5]octan-7-yl]-7H-pyrrolo[2,3-c]pyridazin-3-yl}-5-(5-methyl-1H-1,2,3-triazol-1-yl)phenol], the half-maximal inhibitory concentration (IC50) was in the range of 500 to 1000 nM.

In general, IC50 refers to the concentration that inhibits the measured activity by half.
